Measurements published in PubChem BioAssay (NCI).
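Step 1: Grow cells in 96-well plates. Step 2: Expose to compound for 48 hours at 5 concentrations. Step 3: Interpolate endpoints linearly; if unreached, use highest concentration. At the GI50, growth is halved. TGI is the concentration that stops growth completely.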

Legend:
Test in all cases: growth of human tumour cells (NCI), 48 h
TK-10 renal = system: TK-10 renal
SF-268 CNS = system: SF-268 CNS
RPMI-8226 leukemia = system: RPMI-8226 leukemia
OVCAR-4 ovarian = system: OVCAR-4 ovarian
A549 NSCLC = system: A549 NSCLC
A498 renal = system: A498 renal
HCC-2998 colon = system: HCC-2998 colon
UACC-62 melanoma = system: UACC-62 melanoma
COLO 205 colon = system: COLO 205 colon
HL-60(TB) leukemia = system: HL-60(TB) leukemia

SMILES | TGI (TK-10 renal) [µM] | TGI (SF-268 CNS) [µM] | TGI (RPMI-8226 leukemia) [µM] | TGI (OVCAR-4 ovarian) [µM] | TGI (A549 NSCLC) [µM] | TGI (A498 renal) [µM] | TGI (HCC-2998 colon) [µM] | TGI (UACC-62 melanoma) [µM] | TGI (COLO 205 colon) [µM] | TGI (HL-60(TB) leukemia) [µM] | GI50 (TK-10 renal) [µM] | GI50 (RPMI-8226 leukemia) [µM] | GI50 (HL-60(TB) leukemia) [µM] | GI50 (OVCAR-4 ovarian) [µM] | GI50 (A549 NSCLC) [µM] | GI50 (A498 renal) [µM] | GI50 (UACC-62 melanoma) [µM] | GI50 (COLO 205 colon) [µM] | GI50 (SF-268 CNS) [µM] | GI50 (HCC-2998 colon) [µM]
N#CC(C(=N/O)/C(=N/O)C(C#N)c1ccc(Cl)cc1)c1ccc(Cl)cc1 (stereo unspecified) | > 100 | > 100 | > 100 | > 100 | > 100 | > 100 | > 100 | > 100 | > 100 |  |  |  |  |  |  |  |  |  |  | 
CCCCNC1=C(C(=O)OCC)C(=O)CO1 | > 100 | > 100 | > 100 | > 100 | > 100 |  | > 100 | > 100 | > 100 | > 100 |  |  |  |  |  |  |  |  |  | 
Cc1ccc(-c2c3c([nH]c(=O)c2C#N)-c2cc(F)ccc2OC3)cc1 | 80.9 |  | > 100 | > 100 | > 100 | > 100 |  | > 100 | > 100 | > 100 | 29.4 | 28.3 | 96.6 | > 100 | 55 | > 100 | 61.2 | > 100 |  | 
O=C1CNCCCN2CCN(CCCNCC(=O)Nc3ccc(cc3)S(=O)(=O)c3ccc(cc3)NC(=O)CNCCCN3CCN(CCCNCC(=O)Nc4ccc(cc4)S(=O)(=O)c4ccc(cc4)N1)CC3)CC2 | 56.5 | > 55.4 | 64 | 97.7 | > 100 | 47.1 | 42.7 | > 67.5 | 96.9 |  |  |  |  |  |  |  |  |  |  | 
O=C1OCc2c1cc1ccc(O)c(OC3OC(CO)C(O)C(O)C3O)c1c2-c1ccc2c(c1)OCO2 (stereo unspecified) | > 100 | > 100 | > 100 | > 100 | > 100 | > 100 | > 100 | > 100 | > 100 |  |  | 34.6 |  | 56.2 |  |  |  |  | 57.1 | 38.2
CCNCCNc1cc(-c2ccc(C(=O)OC)cc2)c(C#N)c2nc3ccccc3n12 | 4.44 | 16.2 | 5.3 |  | 5.01 | 5.13 | > 100 | 4.74 | 2.24 | 2.93 | 1.91 | 1.99 | 1.11 |  | 1.46 | 1.99 | 2.26 | 0.623 | 2.54 | 2.3
O=C(O)Cn1ccc(=O)c2ccc([N+](=O)[O-])cc21 | > 100 | > 100 |  |  | > 100 | > 100 | > 100 | > 100 | > 100 | > 100 |  |  |  |  |  |  |  |  |  | 
N#C/C(=C/c1ccsc1)C(=O)c1ccccc1 | > 100 | > 100 | > 100 | > 100 | > 100 |  | > 100 | > 100 | > 100 | > 100 |  |  |  |  |  |  |  |  |  | 
COc1cnc2cc(C(=O)O)c3c([N+](=O)[O-])cccc3c2c1 | > 100 | > 100 | > 100 | > 100 | > 100 |  | > 100 | > 100 | > 100 | > 100 |  |  |  |  |  |  |  |  |  | 
Nc1ccn(C2O[C@H](CO)[C@@H](O)[C@@H]2O)c(=O)n1 (stereo partly specified) | > 100 | > 100 |  | > 100 | > 100 | > 100 | > 100 | > 100 | > 100 | > 100 |  |  | > 100 |  | 24.6 |  |  | 51.8 |  | 68.5
Cc1ccc(C)c(NC(=O)CC/C(=N\NC(=O)C(=O)NN)C(C)C(=O)c2ccc(O)cc2)c1 (stereo unspecified) | > 100 | > 100 | > 100 | > 100 | > 100 | > 100 | > 100 | > 100 | > 100 |  |  |  |  |  |  |  |  |  |  | 
COc1cc(/C=C/c2cc(/C=C/c3ccc(O)c(OC)c3)n(-c3ccccc3)n2)ccc1O | 1.99 |  |  | 4.95 | 2.16 | 1.82 | 2.46 |  | 3.31 | 0.774 | 0.563 |  | 0.271 | 0.536 | 0.405 | 0.575 |  | 1.77 |  | 0.605
COC(=O)CC(=O)C[P+](c1ccccc1)(c1ccccc1)c1ccccc1 | > 218 | > 218 | > 218 |  | > 218 |  | > 218 | > 218 | > 218 | 149 |  |  |  |  |  |  |  |  |  | 
COC(=O)C1=C(C(=O)OC)C2C=CC1C1C(Cl)=C(Cl)C21 (stereo unspecified) | > 100 | > 100 | > 100 | > 100 | > 100 |  | > 100 | > 100 | > 100 |  |  |  |  |  |  |  |  |  |  | 
CCN(CC)c1c(C(=O)/C=C/c2ccccc2)c(-c2ccccc2)nn(C)c1=O | > 100 | > 100 |  | > 100 | > 100 | > 100 |  | > 100 | > 100 | > 100 |  |  |  |  |  |  |  |  |  | 
Cn1cc(-c2cnc3ccc(NC(=O)Nc4ccc(F)c(Br)c4)cc3n2)cn1 | 5.5 | 7 | 3.82 | 5.55 | 4.85 | 4.04 | 3.5 | 3.74 | 3.24 |  | 2.09 | 1.25 |  | 1.53 | 1.77 | 1.51 | 1.68 | 1.59 | 2.38 | 1.79
Cn1c(N2NC(=O)C(N=Nc3ccc(S(N)(=O)=O)cc3)C2=O)nc(-c2ccco2)c(C#N)c1=O (stereo unspecified) | 33.5 | > 50 | 30.2 | 23.9 | > 50 | > 50 |  | > 50 | 11.8 | 18.4 | 8.64 | 4.98 | 5.04 | 8 | > 50 | > 50 | 39.4 | 3.18 | 15.6 | 
CN1CCN(Cc2ccc(NC(=O)c3cncc(C#Cc4cnc(N)c5ccc(C#N)cc45)c3)cc2C(F)(F)F)CC1 | 1.47 | 0.859 | 1.25 |  | 0.919 | 0.478 | 11.1 | 0.422 | 0.722 | 1.05 | 0.21 | 0.0775 | 0.0483 |  | 0.0353 | 0.0208 | 0.0279 | 0.0178 | 0.0497 | 0.901
COc1cc(C2c3cc4c(cc3C(NCC(O)CO)C3COC(=O)[C@H]23)OCO4)cc(OC)c1OC (stereo partly specified) | > 100 | > 100 | > 100 |  |  |  | > 100 | > 100 | 0.364 | 0.543 |  |  |  |  |  |  |  |  |  | 
O=C1C=CC(=Nc2ccc3c(c2)C(Br)c2ccccc2-3)O1 (stereo unspecified) | > 100 | > 100 | > 100 |  | > 100 |  | > 100 | > 100 | > 100 | > 100 |  |  |  |  |  |  |  |  |  | 
Cc1ccc(S(=O)(=O)C(CC(=O)N2CCCC2)C(=O)c2ccccc2)cc1 (stereo unspecified) | > 100 | > 100 |  | > 100 | > 100 |  | > 100 | > 100 | > 100 | 52.7 |  |  |  |  |  |  |  |  |  | 
COC(=O)C[C@H]1CCC2(OCCO2)[C@]1(C)C(=O)OC | > 100 | > 100 | > 100 | > 100 | > 100 | > 100 |  | > 100 | > 100 | > 100 |  |  |  |  |  |  |  |  |  | 
N#CC1(Cc2ccc(N)cc2)c2ccccc2C=CN1C(=O)c1ccccc1 (stereo unspecified) | > 100 | > 100 | > 100 |  | > 100 | > 100 | > 100 | > 100 | 85.7 | 44 |  |  |  |  |  |  |  |  |  | 
COc1ccc2cc1Oc1ccc(cc1)CC1c3cc(c(OC)cc3CCN1C)Oc1c3c(cc4c1C(C2)N(C)CC4)OCO3 (stereo unspecified) | 5.66 | 22.5 |  | 12.7 | 30.6 |  | 24.2 | 30.1 | 18.4 | 6.66 |  |  |  |  |  |  |  |  |  | 
CSc1ccc(C2=NN(C(C)=O)C(c3cc(C)cs3)C2)cc1 (stereo unspecified) | > 100 | > 100 | > 100 | > 100 | > 100 |  | > 100 | 98.4 | 35.8 | 29.8 | 26.9 | 15.3 | 11.8 | 18 | 27.2 |  | 11.2 | 17.3 | 35.6 | 20
CCCCCCCCCCCC(=O)CC(=O)c1c(O)cccc1O | 57.5 | 33 | 43.9 | 34.1 | 33.1 |  | 82.9 | 90.1 | 31.2 | > 100 |  |  |  |  |  |  |  |  |  | 
O=[N+]([O-])/C=C\c1ccc(Cl)c(Cl)c1 | 12 | 6.97 | 0.624 | 24 | 5.43 | 3.81 |  | 30.1 | 12.8 | 10.5 | 3.48 | 0.249 | 2.15 | 11.5 | 2.37 | 0.667 | 10.9 | 3.48 | 2.42 | 
CCc1c(Oc2ccc(C(C)=O)cc2)c2ccccc2[nH]c1=O | 28.6 | 61 | > 42.5 | > 100 | 59.5 | 32 | 30 | 16.5 | 40.7 |  | 7.03 | 3.65 |  | 70 | 18.5 | 17.2 | 3.74 | 13.7 | 18.1 | 14.3
